Results published in BindingDB's records for doi:10.1016/j.bioorg.2017.05.009 (Kinnaird College for Women, 2017).
pIC50: −log10 of the molar value.

What follows are molecules tested against Alpha-glucosidase MAL32 (Saccharomyces cerevisiae, UniProt P38158) (assay: α-Glucosidase Inhibition Assay). Conditions: pH 6.8; 37 °C.
Chain of Alpha-glucosidase MAL32 (P38158 whole entry): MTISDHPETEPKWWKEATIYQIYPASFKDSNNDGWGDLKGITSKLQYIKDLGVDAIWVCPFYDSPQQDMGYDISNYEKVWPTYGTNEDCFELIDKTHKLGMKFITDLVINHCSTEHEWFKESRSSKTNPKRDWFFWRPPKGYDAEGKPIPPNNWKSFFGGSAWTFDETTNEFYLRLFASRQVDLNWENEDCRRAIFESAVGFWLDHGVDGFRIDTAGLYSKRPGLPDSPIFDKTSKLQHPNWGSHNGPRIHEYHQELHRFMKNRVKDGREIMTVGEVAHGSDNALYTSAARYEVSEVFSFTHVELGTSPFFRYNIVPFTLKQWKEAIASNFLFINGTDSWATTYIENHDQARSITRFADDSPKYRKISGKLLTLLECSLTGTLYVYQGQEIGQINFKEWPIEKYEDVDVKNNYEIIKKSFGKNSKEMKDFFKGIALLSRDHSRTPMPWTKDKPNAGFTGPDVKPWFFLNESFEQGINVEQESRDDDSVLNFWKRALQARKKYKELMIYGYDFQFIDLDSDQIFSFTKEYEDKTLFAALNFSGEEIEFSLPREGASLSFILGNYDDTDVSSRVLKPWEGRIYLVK
Experimental: For α-glucosidase inhibition assay, α-glucosidase enzyme (Cat No. 5003-1KU Type I; isolated from Saccharomyces cereviciae) was used. Acarbose was the reference standard and Pierre's methodology was employed [Pierre et al., J. Clin. Chem., 24:208-211]. First absorbance was taken at 400 nm after the 10 min incubation of a mixture of phosphate buffer ([…], pH 6.8), test compound ([…], 0.5 mM) and enzyme ([…], 0.0234 units, Sigma Inc.). Later, […] of p-nitrophenyl-α-D-glucopyranoside (0.5 mM, code No. N1377 from Sigma Inc) was added. After 30 min incubation at 37 °C, the absorbance was retaken at 400 nm.
`Cc1cc(C)cc(-n2c(-c3cn(-c4ccccc4)nc3C3=CC4C=C(Br)C=CC4OC3=O)nc(-c3ccccc3)c2-c2ccccc2)c1` (stereo not given) [6-Bromo-3-(4-(1-(3,5-dimethylphenyl)-4,5-diphenyl-1Himidazol-2-yl)-1-phenyl-1H-pyrazol-3-yl)-4a,8a-dihydro-2Hchromen-2-one (3g)] showed a pIC50 of 5.25. `Cc1cc(C)cc(-n2c(-c3cn(-c4ccccc4)nc3C3=CC4C=CC=CC4OC3=O)nc(-c3ccccc3)c2-c2ccccc2)c1` (stereo not given) [3-(4-(1-(3,5-Dimethylphenyl)-4,5-diphenyl-1H-imidazol-2-yl)-1-phenyl-1H-pyrazol-3-yl)-4a,8a-dihydro-2H-chromen-2-one (3d)] showed a pIC50 of 4.33. In the case of `Cc1ccc(-n2c(-c3cn(-c4ccccc4)nc3-c3cc4cc(Br)ccc4oc3=O)nc(-c3ccccc3)c2-c2ccccc2)cc1` [6-Bromo-3-(4-(4,5-diphenyl-1-(p-tolyl)-1H-imidazol-2-yl)-1-phenyl-1H-pyrazol-3-yl)-2H-chromen-2-one (3i)], the pIC50 was 5.23. Work on `COc1ccc(-n2c(-c3cn(-c4ccccc4)nc3-c3cc4cc(Br)ccc4oc3=O)nc(-c3ccccc3)c2-c2ccccc2)cc1` [6-Bromo-3-(4-(1-(4-methoxyphenyl)-4,5-diphenyl-1Himidazol-2-yl)-1-phenyl-1H-pyrazol-3-yl)-2H-chromen-2-one (3h)] yielded a pIC50 of 5.03. In the case of `O=C1OC2C=CC=CC2C=C1c1nn(-c2ccccc2)cc1-c1nc(-c2ccccc2)c(-c2ccccc2)n1-c1ccc(Cl)cc1` (stereo not given) [3-(4-(1-(4-Chlorophenyl)-4,5-diphenyl-1H-imidazol-2-yl)-1-phenyl-1H-pyrazol-3-yl)-4a,8a-dihydro-2H-chromen-2-one (3a)], the pIC50 was 4.90. For `COc1ccc(-n2c(-c3cn(-c4ccccc4)nc3C3=CC4C=CC=CC4OC3=O)nc(-c3ccccc3)c2-c2ccccc2)cc1` (stereo not given) [3-(4-(1-(4-Methoxyphenyl)-4,5-diphenyl-1H-imidazol-2-yl)-1-phenyl-1H-pyrazol-3-yl)-4a,8a-dihydro-2H-chromen-2-one (3c)], the pIC50 was 4.60. `O=c1oc2ccc(Br)cc2cc1-c1nn(-c2ccccc2)cc1-c1nc(-c2ccccc2)c(-c2ccccc2)n1-c1ccc(Cl)cc1` [6-Bromo-3-(4-(1-(4-chlorophenyl)-4,5-diphenyl-1H-imidazol-2-yl)-1-phenyl-1H-pyrazol-3-yl)-2H-chromen-2-one (3f)] was tested, and the pIC50 was 5.60. For `O=C1OC2C=CC=CC2C=C1c1nn(-c2ccccc2)cc1-c1nc(-c2ccccc2)c(-c2ccccc2)n1-c1ccc(Br)cc1` (stereo not given) [3-(4-(1-(4-Bromophenyl)-4,5-diphenyl-1H-imidazol-2-yl)-1-phenyl-1H-pyrazol-3-yl)-4a,8a-dihydro-2H-chromen-2-one (3b)], the pIC50 was 4.46. `O=c1oc2ccc(Br)cc2cc1-c1nn(-c2ccccc2)cc1-c1nc(-c2ccccc2)c(-c2ccccc2)n1-c1ccc(Br)cc1` [6-Bromo-3-(4-(1-(4-bromophenyl)-4,5-diphenyl-1H-imidazol-2-yl)-1-phenyl-1H-pyrazol-3-yl)-2H-chromen-2-one (3j)] was tested, and the pIC50 was 5.28. `CCCn1c(-c2cn(-c3ccccc3)nc2C2=CC3C=CC=CC3OC2=O)nc(-c2ccccc2)c1-c1ccccc1` (stereo not given) [3-(4-(4,5-Diphenyl-1-propyl-1H-imidazol-2-yl)-1-phenyl-1Hpyrazol-3-yl)-4a,8a-dihydro-2H-chromen-2-one (3e)] showed a pIC50 of 4.35.
